IC50 data for twelve compounds are collected here from US20130060013A1, “Compounds useful for treating neurodegenerative disorders” (SATORI PHARMACEUTICALS, INC., priority 2011, published 2013).

For orientation: IC50 means the concentration at which inhibition is half-maximal.

Format in all cases: cell-based
Details in all cases: Homo sapiens, compound 5 hours at 37° C., 1% DMSO, percent vehicle fit to 4 parameter curve

In one experiment the test system is Aβ-40. Briefly: Aβ-40 level in conditioned media of 2B7 cells (MSD 3-PLEX ELISA).
A further experiment relates to Aβ-38. Briefly: Aβ-38 level in conditioned media of 2B7 cells (MSD 3-PLEX ELISA). Summed up: (§1)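 2B7 cells at confluence were exposed to compound dilutions in medium (1% DMSO final) for 5 h at 37 °C. Conditioned medium, diluted 1:1 in blocking buffer, was assayed by MSD 3-plex electrochemiluminescence ELISA, and levels were read from a seven-point standard curve. IC50 came from a 4-parameter fit of percent-of-vehicle values.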
Background: In an ELISA, binding on a coated surface is turned into a signal by an enzyme label.

A further experiment concerns Aβ-42. Briefly: Aβ-42 level in conditioned media of 2B7 cells (MSD 3-PLEX ELISA). The method in brief:
as §1

Regarding `CCO[C@@H]([C@H]1C[C@@H](C)[C@H]2[C@H](O1)[C@H](O)[C@@]1(C)[C@@H]3CC[C@H]4C(C)(C)[C@@H](O[C@H]5CN([C@@H](C)C(=O)N6CCC6)CCO5)CCC45C[C@@]35CC[C@]21C)C(C)(C)O` (stereo partly drawn), the figures for the 50% inhibitory concentration (IC50) in the experiment with Aβ-40, in the experiment with Aβ-38 and in the experiment with Aβ-42 were more than 10 µM, 1 to 10 µM and less than 1 µM, respectively.

In the case of `CCO[C@@H]([C@H]1C[C@@H](C)[C@H]2[C@H](O1)[C@H](O)[C@@]1(C)[C@@H]3CC[C@H]4C(C)(C)[C@@H](O[C@H]5CN(CC6CN(C(C)=O)C6)CCO5)CCC45C[C@@]35CC[C@]21C)C(C)(C)O` (stereo partly drawn), the figures for the 50% inhibitory concentration (IC50) with Aβ-40, with Aβ-38 and with Aβ-42 were 1 to 10 µM, 1 to 10 µM and less than 1 µM, respectively.

For `CO[C@@H]([C@H]1C[C@@H](C)[C@H]2[C@H](O1)[C@H](O)[C@@]1(C)[C@@H]3CC[C@H]4C(C)(C)[C@@H](O[C@H]5CN(CCN(C)C)CCO5)CCC45C[C@@]35CC[C@]21C)C(C)(C)O` (stereo partly drawn), the IC50 was more than 10 µM in the experiment on Aβ-40, 1 to 10 µM with Aβ-38 and less than 1 µM with Aβ-42.

Consider `CCO[C@@H]([C@H]1C[C@@H](C)[C@H]2[C@H](O1)[C@H](O)[C@@]1(C)[C@@H]3CC[C@H]4C(C)(C)[C@@H](OC(=O)[C@H]5CNCCO5)CCC45C[C@@]35CC[C@]21C)C(C)(C)O` (stereo partly drawn), for which the half-maximal inhibitory concentration (IC50) was 1 to 10 µM in the experiment with Aβ-40, less than 1 µM with Aβ-38 and less than 1 µM with Aβ-42.

For `CO[C@@H]([C@H]1C[C@@H](C)[C@H]2[C@H](O1)[C@H](O)[C@@]1(C)[C@@H]3CC[C@H]4C(C)(C)[C@@H](O[C@H]5CN(CCN6CCOCC6)CCO5)CCC45C[C@@]35CC[C@]21C)C(C)(C)O` (stereo partly drawn), the results for the IC50 in the experiment with Aβ-40, in the experiment on Aβ-38 and in the experiment with Aβ-42 were 1 to 10 µM, less than 1 µM and less than 1 µM, respectively.

Consider `CCO[C@@H]([C@H]1C[C@@H](C)[C@H]2[C@H](O1)[C@H](O)[C@@]1(C)[C@@H]3CC[C@H]4C(C)(C)[C@@H](O[C@H]5CN(C(C)(C)CN6CCOCC6)CCO5)CCC45C[C@@]35CC[C@]21C)C(C)(C)O` (stereo partly drawn), for which the half-maximal inhibitory concentration (IC50) is 1 to 10 µM with Aβ-40, less than 1 µM in the experiment on Aβ-38 and less than 1 µM in the experiment on Aβ-42.

`CCO[C@@H]([C@H]1C[C@@H](C)[C@H]2[C@H](O1)[C@H](O)[C@@]1(C)[C@@H]3CC[C@H]4C(C)(C)[C@@H](O[C@H]5CN(Cc6ccn(C)n6)CCO5)CCC45C[C@@]35CC[C@]21C)C(C)(C)O` (stereo partly drawn): the concentration for half-maximal inhibition (IC50) with Aβ-40 was more than 10 µM; in the experiment on Aβ-38, 1 to 10 µM; with Aβ-42, less than 1 µM.

For `CCO[C@@H]([C@H]1C[C@@H](C)[C@H]2[C@H](O1)[C@H](O)[C@@]1(C)[C@@H]3CC[C@H]4C(C)(C)[C@@H](O[C@H]5CN(CCN6CCOC6=O)CCO5)CCC45C[C@@]35CC[C@]21C)C(C)(C)O` (stereo partly drawn), the results for the IC50 with Aβ-40, in the experiment on Aβ-38 and in the experiment on Aβ-42 were 1 to 10 µM, less than 1 µM and less than 1 µM, respectively.

With `CO[C@@H]([C@H]1C[C@@H](C)[C@H]2[C@H](O1)[C@H](O)[C@@]1(C)[C@@H]3CC[C@H]4C(C)(C)[C@@H](OC5CN(C6CCN(C)C6=O)CCO5)CCC45C[C@@]35CC[C@]21C)C(C)(C)O` (stereo partly drawn), the IC50 in the experiment on Aβ-40 was more than 10 µM; with Aβ-38 it was less than 1 µM; with Aβ-42, less than 1 µM.

As to `CCO[C@@H]([C@H]1C[C@@H](C)[C@H]2[C@H](O1)[C@H](O)[C@@]1(C)[C@@H]3CC[C@H]4C(C)(C)[C@@H](O[C@H]5CN(CCF)CCO5)CCC45C[C@@]35CC[C@]21C)C(C)(C)O` (stereo partly drawn), the figures for the IC50 in the experiment with Aβ-40, in the experiment with Aβ-38 and in the experiment on Aβ-42 were 1 to 10 µM, less than 1 µM and less than 1 µM, respectively.

As to `CCO[C@@H]([C@H]1C[C@@H](C)[C@H]2[C@H](O1)[C@H](O)[C@@]1(C)[C@@H]3CC[C@H]4C(C)(C)[C@@H](OC(=O)[C@@H]5CCCN5C)CCC45C[C@@]35CC[C@]21C)C(C)(C)O` (stereo partly drawn), the figures for the IC50 in the experiment on Aβ-40, in the experiment on Aβ-38 and with Aβ-42 were 1 to 10 µM, less than 1 µM and less than 1 µM, respectively.

Take `CCO[C@@H]([C@H]1C[C@@H](C)[C@H]2[C@H](O1)[C@H](O)[C@@]1(C)[C@@H]3CC[C@H]4C(C)(C)[C@@H](OC(=O)[C@@H]5C[C@@H](O)CN5)CCC45C[C@@]35CC[C@]21C)C(C)(C)O` (stereo partly drawn): the IC50 in the experiment with Aβ-40 is 1 to 10 µM; with Aβ-38 it was less than 1 µM; in the experiment on Aβ-42 it was less than 1 µM.
